From ChEMBL document CHEMBL4673262, “Ginkgobilol, a new diarylpentanoid and an osteogenic diarylpentanoid analog from Ginkgo biloba leaves” (2020) come the findings set out here.

Test [1] relates to C3H 10T1/2. Nature of the test: Induction of osteogenic differentiation in mouse C3H10T1/2 cells assessed as osteoblast by measuring increase in alkaline phosphatase at 20 uM relative to control. It counts as functional, cell-based.
Test [2] deals with C3H 10T1/2. The test can be described thus: Induction of osteogenic differentiation in mouse C3H10T1/2 cells assessed as increase in osteopontin mRNA expression at 5 uM by RT-qPCR analysis relative to control. It is filed as functional, cell-based.
Test [3] concerns C3H 10T1/2. The test can be described thus: Induction of osteogenic differentiation in mouse C3H10T1/2 cells assessed as increase in alkaline phosphatase mRNA expression at 5 uM by RT-qPCR analysis relative to control. It counts as functional, cell-based.
Test [4] is described as follows: Induction of osteogenic differentiation in mouse C3H10T1/2 cells assessed as increase in osteopontin mRNA expression at 40 uM by RT-qPCR analysis relative to control. It is filed as functional, C3H 10T1/2.
The nature of test [5]: Induction of osteogenic differentiation in mouse C3H10T1/2 cells assessed as increase in alkaline phosphatase mRNA expression at 40 uM by RT-qPCR analysis relative to control. It counts as functional, C3H 10T1/2.
Test [6] relates to C3H 10T1/2. The test can be described thus: Induction of osteogenic differentiation in mouse C3H10T1/2 cells upto 40 uM assessed as osteoblast by measuring alkaline phosphatase after 10 days of differentiation relative to control. It counts as functional, cell-based. Conditions: dose microM <=40, time 10.0 day.
The test system of test [7] is C3H 10T1/2. Nature of the test: Induction of osteogenic differentiation in mouse C3H10T1/2 cells assessed as increase in osteopontin mRNA expression by RT-qPCR analysis relative to control. It counts as functional, cell-based.
Test [8] concerns C3H 10T1/2. Nature of the test: Induction of osteogenic differentiation in mouse C3H10T1/2 cells assessed as increase in alkaline phosphatase mRNA expression by RT-qPCR analysis relative to control. It is filed as functional, cell-based.

The source made the active and inactive calls. No cut-off for these calls is given here.

For the molecule `CO[C@@H](c1ccc(O)cc1)[C@H](O)C/C=C\c1ccc(O)cc1`, the result with C3H 10T1/2 [1] was inactive.
For the molecule `COc1cc([C@H]2O[C@H](c3cc(OC)c(O)c(OC)c3)[C@@H](COC(=O)/C=C/c3ccc(O)cc3)[C@@H]2COC(=O)/C=C/c2ccc(O)cc2)cc(OC)c1O`, the outcome with C3H 10T1/2 [2] and in the test with C3H 10T1/2 [3] was Active.
As to `Oc1ccc(/C=C\C/C=C\c2ccc(O)cc2)cc1`, the “fold change (FC)” value in test [4] is 4.7; in test [5] it was 7.8. The Activity entry with C3H 10T1/2 [6], in the test on C3H 10T1/2 [7] and in the test with C3H 10T1/2 [8] was “Dose-dependent effect” each time. In addition, the result in the test with C3H 10T1/2 [1] was Active.
